From patent publication US20220251143A1, “NON-HYDROLYZABLE NON-CLEAVABLE, STABLE LINKERS FOR PRECISION THERAPEUTICS AND USES THEREOF” (THE TRUSTEES OF COLUMBIA UNIVERSITY IN THE CITY OF NEW YORK, priority 2019, published 2022)
Bridge positions count the residues as written; N and C are the ends. Square brackets hold non-standard residues; d marks the D form. Peptide text beside a SMILES is read from it. * marks the point of attachment. DM1Mal(CH2)2CO = COc1cc2cc(c1Cl)N(C)C(=O)C[C@H](OC(=O)[C@H](C)N(C)C(=O)CCSC1CC(=O)N(CCC(=O)*)C1=O)[C@]1(C)O[C@H]1[C@H](C)[C@@H]1C[C@@](O)(NC(=O)O1)[C@H](OC)/C=C/C=C(\C)C2; X1 = COc1cc2cc(c1Cl)N(C)C(=O)C[C@H](OC(=O)[C@H](C)N(C)C(=O)CCSC1CC(=O)N(CCCC(=O)*)C1=O)[C@]1(C)O[C@H]1[C@H](C)[C@@H]1C[C@@](O)(NC(=O)O1)[C@H](OC)/C=C/C=C(\C)C2; d2Nal = N[C@H](Cc1ccc2ccccc2c1)C(=O)O; PEG2 = NCCOCCOCCC(=O)O

Legend:
[1] = Stability of aqueous solutions at 4° C.; assay type: physicochemical; settings: preliminary studies
Text: (§1) Conjugate composition comprising DM1 and lanreotide and the non-hydrolyzable, non-cleavable, stable linker GMBS was synthesized as shown in Scheme 1. Briefly, the primary amine of lanreotide was protected with Boc20. The reaction of the second amine group of the protected lanreotide with the NHS ester of GMBS gave the intermediate GMBS-lanreotide. The reaction of the maleimide of GMBS-lanreotide with the sulfhydryl group (—SH) of DM1 gave a protected conjugate. De-protection of the Boc with TFA provided the final product. All compounds were fully characterized and purified to >95% as determined by NMR and LC-MS analyses. The purity of the compound for animal studies is >98%.
as §1, with “PEG” for “GMBS”, “2.” for “1.”, “PEG-lanreotide.” for “GMBS-lanreotide.”, “PEG-lanreotide” for “GMBS-lanreotide”

[2] = tested on: neuroendocrine prostate cancer (NEPC) organoids; settings: three days
Text: A neuroendocrine prostate cancer (NEPC) cell line was used and NEPC organoids were generated.
CellTiter-Glo Luminescent Cell Viability assay measured viable cells. The percentage of viable cells after drug treatment compared to vehicle control (DMSO) was used to generate a dose—response curve.

[3] = tested on: SSTR2 expression in NEC1 (NCI-H82) cells; test: SSTR2 expression by quantitative PCR, NEC1; assay type: cell-based; settings: within 72 hours, 1 or 3 nanomolar romidepsin or 1 micromolar entinostat
Description: (§2) Three neuroendocrine cell lines, NEC1 (NCI—H82), NEC2 (Kelly), and NEC3 (H727), were incubated in media containing 1 or 3 nanomolar romidepsin (EA1) or 1 micromolar entinostat (EA2) or without drug at 37° C. under 5% CO2 for 72-96 hours after which time cellular RNA was harvested and expression of the SSTR determined.
(§3) Somatostatin receptor expression was measured by quantitative PCR using primers for SSTR2.

[4] = tested on: SSTR2 expression in NEC2 (Kelly) cells; test: SSTR2 expression by quantitative PCR, NEC2; assay type: cell-based; settings: within 72 hours, 1 or 3 nanomolar romidepsin or 1 micromolar entinostat
Description: as §2, §3

[5] = tested on: SSTR2 expression in NEC3 (H727) cells; test: SSTR2 expression by quantitative PCR, NEC3; assay type: cell-based; settings: within 72 hours, 1 or 3 nanomolar romidepsin or 1 micromolar entinostat
Description: as §2, §3

| SMILES | stability of aqueous solutions [1] | effectiveness compared with conjugate with cleavable, hydrolysable linker (MCC) ([2]; NEPC organoids) | activity in NEPC organoids (viable cells) ([2]; 1 uM to 0.00046 uM) | induction of the somatostatin receptor (SSTR2 expression) [3] | induction of the somatostatin receptor (SSTR2 expression) [4] | induction of the somatostatin receptor (SSTR2 expression) [5] |
| --- | --- | --- | --- | --- | --- | --- |
| COc1cc2cc(c1Cl)N(C)C(=O)C[C@H](OC(=O)[C@H](C)N(C)C(=O)CCSC1CC(=O)N(CCCC(=O)N[C@H](Cc3ccc4ccccc4c3)C(=O)N[C@H]3CSSC[C@H](C(=O)N[C@H](C(N)=O)[C@@H](C)O)NC(=O)[C@H](C(C)C)NC(=O)[C@H](CCCCN)NC(=O)[C@@H](Cc4c[nH]c5ccccc45)NC(=O)[C@H](Cc4ccc(O)cc4)NC3=O)C1=O)[C@]1(C)O[C@H]1[C@H](C)[C@@H]1C[C@@](O)(NC(=O)O1)[C@H](OC)/C=C/C=C(\C)C2 (stereo partly shown) [DM1-GMBS-Lanreotide] (X1-[d2Nal]CY[dW]KV[dC]T-NH2; disulfide 2-7) | stable at 4 °C for months | – | – | – | – | – |
| COc1cc2cc(c1Cl)N(C)C(=O)C[C@H](OC(=O)[C@H](C)N(C)C(=O)CCSC1CC(=O)N(CCC(=O)NCCOCCOCCC(=O)N[C@H](Cc3ccc4ccccc4c3)C(=O)N[C@H]3CSSC[C@H](C(=O)N[C@H](C(N)=O)[C@@H](C)O)NC(=O)[C@H](C(C)C)NC(=O)[C@H](CCCCN)NC(=O)[C@@H](Cc4c[nH]c5ccccc45)NC(=O)[C@H](Cc4ccc(O)cc4)NC3=O)C1=O)[C@]1(C)O[C@H]1[C@H](C)[C@@H]1C[C@@](O)(NC(=O)O1)[C@H](OC)/C=C/C=C(\C)C2 (stereo partly shown) [DM1-PEG-Lanreotide] ({DM1Mal(CH2)2CO-PEG2}-[d2Nal]CY[dW]KV[dC]T-NH2; disulfide 2-7) | stable at 4 °C for months | more effective | effective and active | – | – | – |
| Nc1ccccc1NC(=O)c1ccc(CNC(=O)OCc2cccnc2)cc1 [entinostat] | – | – | – | Induction of the somatostatin receptor | Induction of the somatostatin receptor | Induction of the somatostatin receptor |
